# Assay results taken from the kinase profiling compilation of Christmann-Franck et al. (2016).
# Legend:
# Assay in all cases: radiometric filter-binding kinase assay, Kinase HotSpot
# Conditions in all cases: compound 0.5 µM; ATP 10 µM
# FGFR4 (human) = FGFR4 (human) (UniProt P22455)
# FLT3 (human) = FLT3 (human) (UniProt P36888)
# MELK (human) = MELK (human) (UniProt Q14680)
# DYRK4 (human) = DYRK4 (human) (UniProt Q9NR20)
# NTRK2 (human) = NTRK2 (human) (UniProt Q16620)
# DSTYK (human) = DSTYK (human) (UniProt Q6XUX3)
# CDK1 CCNA2 (human) = CDK1 CCNA2 (human) (UniProt P06493+P20248)
# CDK1 CCNA2 (human), sequence (P06493 whole entry, looked up): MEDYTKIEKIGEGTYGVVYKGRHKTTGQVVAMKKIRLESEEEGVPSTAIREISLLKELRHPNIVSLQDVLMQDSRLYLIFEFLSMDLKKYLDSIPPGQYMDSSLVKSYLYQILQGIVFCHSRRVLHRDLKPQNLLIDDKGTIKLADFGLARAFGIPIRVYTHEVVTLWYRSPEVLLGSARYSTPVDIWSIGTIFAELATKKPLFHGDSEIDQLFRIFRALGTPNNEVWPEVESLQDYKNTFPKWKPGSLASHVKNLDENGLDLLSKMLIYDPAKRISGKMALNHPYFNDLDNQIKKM
# CDK1 CCNA2 (human), sequence (P20248 whole entry, looked up): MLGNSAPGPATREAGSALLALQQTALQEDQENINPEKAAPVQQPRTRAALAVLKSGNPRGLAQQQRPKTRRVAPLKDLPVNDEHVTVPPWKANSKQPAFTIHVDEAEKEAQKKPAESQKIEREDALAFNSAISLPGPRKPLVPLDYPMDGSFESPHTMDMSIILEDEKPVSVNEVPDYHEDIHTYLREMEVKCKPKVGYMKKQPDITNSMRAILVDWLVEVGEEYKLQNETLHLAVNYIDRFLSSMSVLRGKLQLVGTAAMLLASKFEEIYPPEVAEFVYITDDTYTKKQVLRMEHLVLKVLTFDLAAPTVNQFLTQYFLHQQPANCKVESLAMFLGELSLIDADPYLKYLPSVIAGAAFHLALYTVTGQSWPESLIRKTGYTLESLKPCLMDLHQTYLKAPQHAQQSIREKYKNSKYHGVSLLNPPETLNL
# CSNK1G2 (human) = CSNK1G2 (human) (UniProt P78368)
# PRKACA (human) = PRKACA (human) (UniProt P17612)
# PRKCE (human) = PRKCE (human) (UniProt Q02156)
# CHEK2 (human) = CHEK2 (human) (UniProt O96017)
# PASK (human) = PASK (human) (UniProt Q96RG2)
# RPS6KA2 KD1 KD2 (human) = RPS6KA2 KD1 KD2 (human) (UniProt Q15349)
# CAMKK1 (human) = CAMKK1 (human) (UniProt Q8N5S9)
# TAOK3 (human) = TAOK3 (human) (UniProt Q9H2K8)
# MAPKAPK3 (human) = MAPKAPK3 (human) (UniProt Q16644)
# SGK2 (human) = SGK2 (human) (UniProt Q9HBY8)
# PRKCI (human) = PRKCI (human) (UniProt P41743)
# NEK1 (human) = NEK1 (human) (UniProt Q96PY6)
# MARK1 (human) = MARK1 (human) (UniProt Q9P0L2)
# FGR (human) = FGR (human) (UniProt P09769)
# ALK (human) = ALK (human) (UniProt Q9UM73)
# HIPK3 (human) = HIPK3 (human) (UniProt Q9H422)
# CLK4 (human) = CLK4 (human) (UniProt Q9HAZ1)
# FRK (human) = FRK (human) (UniProt P42685)
# PAK2 (human) = PAK2 (human) (UniProt Q13177)
# PKN2 (human) = PKN2 (human) (UniProt Q16513)
# MAPK3 (human) = MAPK3 (human) (UniProt P27361)
# CAMK4 (human) = CAMK4 (human) (UniProt Q16566)
# CAMK4 (human), sequence (Q16566 whole entry, looked up): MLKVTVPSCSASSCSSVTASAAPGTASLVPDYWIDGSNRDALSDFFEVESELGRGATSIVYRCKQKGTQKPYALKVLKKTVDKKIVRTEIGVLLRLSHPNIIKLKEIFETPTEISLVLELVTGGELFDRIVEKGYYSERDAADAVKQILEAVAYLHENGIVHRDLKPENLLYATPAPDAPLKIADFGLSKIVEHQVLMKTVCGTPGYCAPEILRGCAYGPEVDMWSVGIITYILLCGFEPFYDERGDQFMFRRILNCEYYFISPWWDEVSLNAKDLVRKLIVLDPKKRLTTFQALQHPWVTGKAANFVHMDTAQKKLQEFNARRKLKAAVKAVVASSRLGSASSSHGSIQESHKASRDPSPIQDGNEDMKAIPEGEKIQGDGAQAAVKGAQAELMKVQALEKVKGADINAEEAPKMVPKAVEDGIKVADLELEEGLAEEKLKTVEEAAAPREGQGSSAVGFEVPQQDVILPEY
# WNK3 (human) = WNK3 (human) (UniProt Q9BYP7)
# LRRK2 (human) = LRRK2 (human) (UniProt Q5S007)
# GSK3A (human) = GSK3A (human) (UniProt P49840)
# GSK3A (human), sequence (P49840 whole entry, looked up): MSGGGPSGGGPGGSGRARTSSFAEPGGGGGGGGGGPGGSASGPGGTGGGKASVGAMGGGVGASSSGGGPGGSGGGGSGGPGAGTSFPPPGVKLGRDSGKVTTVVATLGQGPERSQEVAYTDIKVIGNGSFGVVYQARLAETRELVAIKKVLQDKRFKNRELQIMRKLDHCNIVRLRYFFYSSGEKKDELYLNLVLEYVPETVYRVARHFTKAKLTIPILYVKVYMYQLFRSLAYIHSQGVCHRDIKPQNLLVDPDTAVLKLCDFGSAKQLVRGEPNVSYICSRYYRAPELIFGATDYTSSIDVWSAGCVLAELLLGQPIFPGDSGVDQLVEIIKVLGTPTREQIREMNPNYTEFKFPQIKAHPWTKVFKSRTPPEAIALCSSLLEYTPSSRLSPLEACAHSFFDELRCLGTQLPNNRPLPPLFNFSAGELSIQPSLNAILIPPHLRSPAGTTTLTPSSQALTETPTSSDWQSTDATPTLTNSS
# GRK5 (human) = GRK5 (human) (UniProt P34947)
# PNCK (human) = PNCK (human) (UniProt Q6P2M8)
# MAPK14 (human) = MAPK14 (human) (UniProt Q16539)
# MAPK14 (human), sequence (Q16539 whole entry, looked up): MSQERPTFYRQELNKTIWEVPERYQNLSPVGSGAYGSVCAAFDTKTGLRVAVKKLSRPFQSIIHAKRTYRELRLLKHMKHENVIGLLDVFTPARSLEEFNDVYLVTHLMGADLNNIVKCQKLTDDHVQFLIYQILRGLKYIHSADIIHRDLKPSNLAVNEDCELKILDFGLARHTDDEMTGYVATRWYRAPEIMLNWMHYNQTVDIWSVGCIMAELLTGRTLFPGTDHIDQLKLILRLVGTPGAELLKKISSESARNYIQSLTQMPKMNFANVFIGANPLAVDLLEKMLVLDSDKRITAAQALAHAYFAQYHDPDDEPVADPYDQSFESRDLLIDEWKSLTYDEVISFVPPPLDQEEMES
# CDK5 CDK5R1 p25 (human) = CDK5 CDK5R1 p25 (human) (UniProt Q00535+Q15078)
# DAPK2 (human) = DAPK2 (human) (UniProt Q9UIK4)
# DAPK2 (human), sequence (Q9UIK4 whole entry, looked up): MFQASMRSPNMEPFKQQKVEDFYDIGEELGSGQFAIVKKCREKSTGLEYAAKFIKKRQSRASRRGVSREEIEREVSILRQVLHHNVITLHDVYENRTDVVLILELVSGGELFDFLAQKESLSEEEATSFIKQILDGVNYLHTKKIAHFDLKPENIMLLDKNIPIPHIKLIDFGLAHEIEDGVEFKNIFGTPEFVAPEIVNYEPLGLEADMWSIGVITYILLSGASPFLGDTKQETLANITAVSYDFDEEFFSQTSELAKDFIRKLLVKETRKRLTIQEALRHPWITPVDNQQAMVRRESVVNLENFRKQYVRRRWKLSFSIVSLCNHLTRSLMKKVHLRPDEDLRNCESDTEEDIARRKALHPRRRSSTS
# FGFR1 (human) = FGFR1 (human) (UniProt P11362)
# MYLK2 (human) = MYLK2 (human) (UniProt Q9H1R3)
# EPHA1 (human) = EPHA1 (human) (UniProt P21709)
# EPHA1 (human), sequence (P21709 whole entry, looked up): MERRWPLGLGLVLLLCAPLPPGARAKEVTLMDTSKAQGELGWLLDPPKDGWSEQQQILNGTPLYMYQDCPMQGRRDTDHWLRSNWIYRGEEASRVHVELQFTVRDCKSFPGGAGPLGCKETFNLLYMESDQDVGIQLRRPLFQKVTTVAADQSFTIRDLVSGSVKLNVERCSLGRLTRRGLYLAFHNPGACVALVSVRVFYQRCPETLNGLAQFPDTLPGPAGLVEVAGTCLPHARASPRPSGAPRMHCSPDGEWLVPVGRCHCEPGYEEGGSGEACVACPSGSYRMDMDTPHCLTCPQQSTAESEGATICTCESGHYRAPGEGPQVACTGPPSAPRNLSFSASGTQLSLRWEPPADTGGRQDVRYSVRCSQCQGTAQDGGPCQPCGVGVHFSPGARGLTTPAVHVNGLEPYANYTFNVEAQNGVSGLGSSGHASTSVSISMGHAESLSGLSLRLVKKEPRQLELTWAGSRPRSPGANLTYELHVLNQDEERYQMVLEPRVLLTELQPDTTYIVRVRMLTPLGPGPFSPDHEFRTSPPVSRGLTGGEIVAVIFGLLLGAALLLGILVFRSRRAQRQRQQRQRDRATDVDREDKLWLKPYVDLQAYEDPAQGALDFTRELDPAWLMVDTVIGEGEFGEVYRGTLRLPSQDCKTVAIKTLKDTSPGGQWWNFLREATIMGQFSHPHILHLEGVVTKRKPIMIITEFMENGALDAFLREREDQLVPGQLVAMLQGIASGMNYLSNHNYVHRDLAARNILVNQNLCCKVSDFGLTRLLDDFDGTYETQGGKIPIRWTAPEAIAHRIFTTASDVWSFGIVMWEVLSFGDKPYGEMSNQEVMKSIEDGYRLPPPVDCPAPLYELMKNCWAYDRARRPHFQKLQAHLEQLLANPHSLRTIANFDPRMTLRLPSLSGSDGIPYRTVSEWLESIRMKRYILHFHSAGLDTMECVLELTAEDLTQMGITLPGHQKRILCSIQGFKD
# PRKCH (human) = PRKCH (human) (UniProt P24723)
# PRKX (human) = PRKX (human) (UniProt P51817)
# FGFR4 (human), sequence (P22455 whole entry, looked up): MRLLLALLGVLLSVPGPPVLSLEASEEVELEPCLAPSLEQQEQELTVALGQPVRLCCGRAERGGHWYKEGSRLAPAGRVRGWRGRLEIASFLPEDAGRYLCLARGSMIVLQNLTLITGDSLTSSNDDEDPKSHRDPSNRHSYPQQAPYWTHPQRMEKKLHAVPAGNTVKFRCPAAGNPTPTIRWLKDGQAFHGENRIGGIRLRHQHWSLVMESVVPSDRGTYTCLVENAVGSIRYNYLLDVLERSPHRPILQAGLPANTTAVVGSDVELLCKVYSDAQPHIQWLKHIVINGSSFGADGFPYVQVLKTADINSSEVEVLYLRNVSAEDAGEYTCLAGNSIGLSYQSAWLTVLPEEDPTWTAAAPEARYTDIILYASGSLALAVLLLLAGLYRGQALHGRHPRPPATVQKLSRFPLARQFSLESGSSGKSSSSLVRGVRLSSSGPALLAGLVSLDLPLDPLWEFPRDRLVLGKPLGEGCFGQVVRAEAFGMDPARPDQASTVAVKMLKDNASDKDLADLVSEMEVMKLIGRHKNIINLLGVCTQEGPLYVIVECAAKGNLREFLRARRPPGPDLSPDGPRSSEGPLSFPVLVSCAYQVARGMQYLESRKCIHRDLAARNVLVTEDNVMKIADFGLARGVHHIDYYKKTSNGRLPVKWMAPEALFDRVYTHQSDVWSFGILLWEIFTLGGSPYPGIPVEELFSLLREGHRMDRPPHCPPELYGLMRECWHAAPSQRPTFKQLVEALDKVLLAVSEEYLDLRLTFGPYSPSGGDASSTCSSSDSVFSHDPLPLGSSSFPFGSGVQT
# NTRK2 (human), sequence (Q16620 whole entry, looked up): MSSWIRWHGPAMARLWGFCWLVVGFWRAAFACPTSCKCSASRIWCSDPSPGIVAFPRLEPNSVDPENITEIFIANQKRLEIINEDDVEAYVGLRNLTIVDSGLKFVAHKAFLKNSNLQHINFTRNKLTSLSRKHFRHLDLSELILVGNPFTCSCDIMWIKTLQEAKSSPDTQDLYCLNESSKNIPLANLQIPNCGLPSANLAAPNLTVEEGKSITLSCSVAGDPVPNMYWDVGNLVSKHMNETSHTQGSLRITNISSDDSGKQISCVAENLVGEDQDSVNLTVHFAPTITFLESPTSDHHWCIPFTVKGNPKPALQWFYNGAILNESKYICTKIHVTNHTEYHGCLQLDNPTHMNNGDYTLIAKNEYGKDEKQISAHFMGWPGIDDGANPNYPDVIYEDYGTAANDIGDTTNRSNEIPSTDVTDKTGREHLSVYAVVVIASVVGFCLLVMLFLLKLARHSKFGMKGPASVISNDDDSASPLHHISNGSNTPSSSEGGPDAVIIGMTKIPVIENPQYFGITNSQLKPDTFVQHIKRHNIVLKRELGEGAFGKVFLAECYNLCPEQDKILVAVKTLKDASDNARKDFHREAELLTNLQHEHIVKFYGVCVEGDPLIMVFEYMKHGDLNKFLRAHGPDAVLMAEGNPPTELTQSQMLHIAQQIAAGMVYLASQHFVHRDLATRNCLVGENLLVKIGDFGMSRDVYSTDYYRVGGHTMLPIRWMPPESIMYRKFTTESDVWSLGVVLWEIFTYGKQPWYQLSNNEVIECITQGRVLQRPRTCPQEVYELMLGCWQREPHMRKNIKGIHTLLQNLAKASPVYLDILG
compound,measurement,setting,value
COc1cc2ncnc(Nc3ccc(F)c(Cl)c3)c2cc1OCCCN1CCOCC1,residual activity,FGFR4 (human),92.4%
same,residual activity,FLT3 (human),56.5%
same,residual activity,MELK (human),77.7%
same,residual activity,DYRK4 (human),105%
same,residual activity,NTRK2 (human),98.2%
same,residual activity,DSTYK (human),101%
same,residual activity,CDK1 CCNA2 (human),101%
same,residual activity,CSNK1G2 (human),98.1%
same,residual activity,PRKACA (human),96.3%
same,residual activity,PRKCE (human),97.3%
same,residual activity,CHEK2 (human),84%
same,residual activity,PASK (human),97.9%
same,residual activity,RPS6KA2 KD1 KD2 (human),82.3%
same,residual activity,CAMKK1 (human),93.8%
same,residual activity,TAOK3 (human),99.5%
same,residual activity,MAPKAPK3 (human),99.6%
same,residual activity,SGK2 (human),117%
same,residual activity,PRKCI (human),96.9%
same,residual activity,NEK1 (human),90.4%
same,residual activity,MARK1 (human),116%
same,residual activity,FGR (human),70.1%
same,residual activity,ALK (human),98.8%
same,residual activity,HIPK3 (human),103%
same,residual activity,CLK4 (human),107%
same,residual activity,FRK (human),97.9%
same,residual activity,PAK2 (human),100%
same,residual activity,PKN2 (human),93.1%
same,residual activity,MAPK3 (human),100%
same,residual activity,CAMK4 (human),93.3%
same,residual activity,WNK3 (human),102%
same,residual activity,LRRK2 (human),108%
same,residual activity,GSK3A (human),99.7%
same,residual activity,GRK5 (human),94.9%
same,residual activity,PNCK (human),108%
same,residual activity,MAPK14 (human),74.6%
same,residual activity,CDK5 CDK5R1 p25 (human),95.4%
same,residual activity,DAPK2 (human),93.2%
same,residual activity,FGFR1 (human),96.4%
same,residual activity,MYLK2 (human),99.2%
same,residual activity,EPHA1 (human),87.4%
O=c1cc(N2CCNCC2)oc2c(-c3ccccc3)cccc12,residual activity,PRKCH (human),97%
same,residual activity,FGFR4 (human),106%
same,residual activity,FLT3 (human),108%
same,residual activity,MELK (human),94.5%
same,residual activity,DYRK4 (human),94.7%
same,residual activity,NTRK2 (human),102%
same,residual activity,DSTYK (human),92.8%
same,residual activity,CDK1 CCNA2 (human),84.8%
same,residual activity,CSNK1G2 (human),101%
same,residual activity,PRKACA (human),110%
same,residual activity,PRKCE (human),104%
same,residual activity,CHEK2 (human),96.6%
same,residual activity,PASK (human),93%
same,residual activity,RPS6KA2 KD1 KD2 (human),106%
same,residual activity,CAMKK1 (human),105%
same,residual activity,PRKX (human),99%
same,residual activity,TAOK3 (human),92.8%
same,residual activity,SGK2 (human),102%
same,residual activity,PRKCI (human),105%
same,residual activity,NEK1 (human),82.8%
same,residual activity,MARK1 (human),99.3%
same,residual activity,FGR (human),99.9%
same,residual activity,ALK (human),83.8%
same,residual activity,HIPK3 (human),116%
same,residual activity,CLK4 (human),88.9%
same,residual activity,FRK (human),105%
same,residual activity,PAK2 (human),99.8%
same,residual activity,PKN2 (human),99.5%
same,residual activity,MAPK3 (human),119%
same,residual activity,CAMK4 (human),104%
same,residual activity,WNK3 (human),93.4%
same,residual activity,LRRK2 (human),101%
same,residual activity,GSK3A (human),99.7%
same,residual activity,GRK5 (human),103%
same,residual activity,PNCK (human),99.8%
same,residual activity,MAPK14 (human),82.8%
same,residual activity,CDK5 CDK5R1 p25 (human),94.5%
same,residual activity,DAPK2 (human),94%
same,residual activity,FGFR1 (human),110%
same,residual activity,MYLK2 (human),97.3%
same,residual activity,EPHA1 (human),112%
CCN1/C(=C/C(C)=O)Sc2ccc(OC)cc21,residual activity,PRKCH (human),88.1%
same,residual activity,FGFR4 (human),92.3%
same,residual activity,FLT3 (human),76.1%
same,residual activity,MELK (human),94.6%
same,residual activity,DYRK4 (human),82.3%
same,residual activity,NTRK2 (human),104%
same,residual activity,DSTYK (human),90.6%
same,residual activity,CDK1 CCNA2 (human),97.5%
same,residual activity,PRKACA (human),98%
same,residual activity,PRKCE (human),95.2%
same,residual activity,CHEK2 (human),104%
same,residual activity,PASK (human),72.8%
same,residual activity,RPS6KA2 KD1 KD2 (human),83.3%
same,residual activity,CAMKK1 (human),105%
same,residual activity,PRKX (human),96.6%
same,residual activity,TAOK3 (human),95.6%
same,residual activity,MAPKAPK3 (human),90.1%
same,residual activity,SGK2 (human),93.7%
same,residual activity,PRKCI (human),97.8%
same,residual activity,NEK1 (human),90.1%
same,residual activity,MARK1 (human),91%
same,residual activity,FGR (human),91.7%
same,residual activity,ALK (human),105%
same,residual activity,HIPK3 (human),100%
same,residual activity,CLK4 (human),18.5%
same,residual activity,FRK (human),99.5%
same,residual activity,PAK2 (human),105%
same,residual activity,PKN2 (human),99.7%
same,residual activity,MAPK3 (human),105%
same,residual activity,CAMK4 (human),99.9%
same,residual activity,WNK3 (human),88.1%
same,residual activity,LRRK2 (human),98.1%
same,residual activity,GSK3A (human),85.7%
same,residual activity,GRK5 (human),108%
same,residual activity,PNCK (human),101%
same,residual activity,MAPK14 (human),95.4%
same,residual activity,CDK5 CDK5R1 p25 (human),87.9%
same,residual activity,DAPK2 (human),90.3%
same,residual activity,MYLK2 (human),95.1%
same,residual activity,EPHA1 (human),95.8%
